# Experimental data: patent publication US20170058314A1, “NOVEL METHODOLOGY FOR IDENTIFYING ANTI-PERSISTER ACTIVITY AND ANTIMICROBIAL SUSCEPTIBILITY FOR BORRELIA BURGDORFERI AND OTHER BACTERIA” (priority 2014, published 2017)
# System: M. tuberculosis H37Ra WT
# Type: cell-based, Mycobacterium tuberculosis
smiles,measurement,value
"NC(=O)c1cnccn1 [PZA, pyrazinamide]",residual viability of H37Ra WT compared with PZA resistant mutants,obviously decreased
